Assays:
βGK mRNA = βGK mRNA steady-state levels (comparative RT-PCR) in cultured pancreatic islets / insulin-producing cells; assay type: cell-based, rat
Method: Insulin-producing HIT-T15 cells were obtained from ATCC. HIT cells were reported to show glucose responsiveness at subphysiological concentrations between 0.1 and 2 mM (Sharma et al., 1995). HIT cells were grown in RPMI 1640 medium supplemented with 100 units/ml penicillin, 100 μg/ml streptomycin, 2 mM glutamine and 10% fetal calf serum at 5% CO2 and 37° C. Pancreatic islets were isolated from normally fed male Wistar rats and from mice by collagenase digestion. Isolated islets were incubated overnight at 5% CO2 and 37° C. in RPMI 1640 medium, supplemented as described above. Transfection of HIT-T15 and islet cells was performed overnight by the lipofectamine technique in RPMI 1640 medium, without serum and antibiotics. For on-line monitoring, cells were grown and transfected on 24-mm glass coverslips. Following transfection, HIT cells were cultured for 12-18 h in RPMI 1640 medium containing 0.1 mM glucose, 10% fetal calf serum and supplemented as above. Before stimulation, islets and islet cells were incubated for 2 h in RPMI 1640 medium, supplemented as above but containing 3 mM glucose. All expression constructs were prepared using the Qiagen Plasmid Maxi Kit (Qiagen), except those used to produce the adenoviruses which where purified by ultracentrifugation via a CsCI-gradient (as described in Sambrook et al, 1989).
All experiments were performed in RPMI 1640 medium, supplemented as above. Protein kinase inhibitors, antibodies or nifedipine were added to the culture medium 30 min prior to stimulation and were kept in the medium throughout stimulation. After stimulation islets, islet cells and HIT cells were cultured further at substimulatory glucose concentrations (0.1 mM for HIT cells and 3 mM for islets and islet cells). For RNA-analysis, islets and cells were harvested 60 min after start of stimulation, if not indicated otherwise. For analysis of protein kinase activities or tyrosine phosphorylation, cells were harvested immediately following stimulation.
RNA Analysis Levels of βGK mRNA were analyzed by RNase-protection assays and comparative RT-PCR. […] Quantification of the protected complexes was performed by phosphorimaging. […] Levels of μGK mRNA were analyzed by RT-PCR using primers 5′-[…]-3′(SEQ ID NO: 1) and 5′-[…]-3′(SEQ ID NO: 2) for characterizing μGK mRNA in HIT cells and primers 5′-[…]-3′(SEQ ID NO: 3) and 5′-[…]-3′(SEQ ID NO: 4) for μGK mRNA in rat and mouse pancreatic islets and islet cells. Levels of μ-actin mRNA were analyzed by RT-PCR using primers 5′-[…]-3′(SEQ ID NO: 5) and 5′-[…]-3′(SEQ ID NO: 6). […] PCR products were separated on a 6% polyacrylamide sequencing gel and analyzed by phosphorimaging. […]

rat insulin-I promoter = assay: Insulin promoter-driven DsRed expression in co-transfected human islet cells; assay type: cell-based
Method: Data are presented as the ratio of fluorescence obtained at minutes 240 and 60 and represent mean values ±S.E. (n=11).
Detection of fluorescence by digital imaging fluorescence microscopy was performed as described previously (Leibiger et al., 1998a; Leibiger et al., 1998b). Briefly, transfected cells were grown on 24-mm glass coverslips. After stimulation the coverslips were placed into a perifusion chamber which was mounted on an inverted microscope (Zeiss Axiovert 135TV). Temperature was kept at 37° C. and the cells were perfused with RPMI 1640 medium. The objective lens used was a Zeiss-Fluar ×40/1.30 oil Imm Korr. Fluorescence imaging was performed with a cooled charged-coupled device camera (CH250 with KAF 1400, Photometrics, Tucson, Ariz.) connected to an imaging system (Inovision) with fluorescence excitation from a SPEX fluorolog-2 CM1T11I spectrofluorometer (Spex Industries). […]
On-line monitoring was initiated 60 min following the start of stimulation and the 60-min value of GFP- or DsRed-fluorescence was set to 1.0. Cells to be monitored were chosen randomly at minute 60 from six fields of vision and fluorescence was monitored up to minute 240. By overlaying the fluorescence and phase-contrast images, the position of cells on the coverslip could be checked. Fluorescence intensity was calculated by using the ISee-software for UNIX (Inovision Corporation).

| Substance | effect of inhibitor on insulin-stimulated βGK mRNA steady-state levels (βGK mRNA; 5 mU/ml insulin, 400 nM AC, FIG. 5B) | effect of inhibitor on insulin-stimulated insulin gene expression (rat insulin-I promoter; 400 nM AC, 10 nM rapamycin, low concentrations: 50 nM wortmannin, 25 μM LY 294002 (FIG. 15)) | exogenous insulin sufficient to evoke βGK mRNA levels (βGK mRNA; pancreatic islets, fully supplemented culture medium, substimulatory glucose) | insulin promoter-driven DsRed expression upon insulin stimulation (rat insulin-I promoter; 5 mU/ml insulin for 5 min, sub-stimulatory glucose) |
| --- | --- | --- | --- | --- |
| autocamtide-2 related inhibitory peptide | altered neither | sensitive |  |  |
| insulin |  |  | 50 μU insulin per ml | up-regulation |
